According to patent publication US7713923B2, “Self-assembling peptides incorporating modifications and methods of use thereof” (Massachusetts Institute of Technology, priority 2003, dated 2010):

Columns and labels:
[1] = test system: human aortic endothelial cells (HAEC); assay: HAEC monolayer formation on peptide scaffolds; format: cell-based; parameters: key to HAEC monolayer formation, peptide content 100% / HAEC monolayer formation, Blending (9:1): +: Score for optimal monolayer formation and cell survival; −: Score for poor or none monolayer formation and cell survival
Procedure: Endothelial cell culture system. Peptide scaffolds (0.5% w/v) were prepared at 100% peptide sequence for RAD16-I or blended with RAD16-I at a radio of 9:1 (RAD16-I: peptide sequence, on a volume/volume basis) for the three other cases (YIG, RYV, and TAG). Each solution was filtered (0.2 μm, Acrodysc filters, 4192, PALL, MI), loaded (30 μl) on top of a cell culture chamber insert (10 mm diameter, 136935, Nalge Nunc International, IL), and allowed to form a layer (average thickness=600 μm). Phosphate Buffer Saline (PBS) (600 μl) was added at the bottom of the well to induce hydrogel formation, and the system was incubated at room temperature for 30 min. PBS was replaced with culture medium, which was then replaced with fresh medium. The scaffolds were incubated for 1 hour with endothelial cell growth media (EGM-2, Cambrex, MD) in a cell culture incubator at 37° C. with 5% CO2.
(§1) Meanwhile, human aortic endothelial cells (HAEC) (CC-2535, Cambrex, MD) that had been maintained under standard culture conditions (passage 5-6) were harvested at 80% confluence using trypsin and loaded on top of the preformed peptide scaffolds at a cell density of 8×10^4 cells/cm^2 and cultured in the cell culture incubator at 37° C. with 5% CO2. Cell attachment assays were performed one hour after the initial cell loading. To perform the assays, the covering media was removed, and unattached cells were counted on a hematocytometer. Cell counting was performed by mechanically disrupting the scaffold containing cells by pipetting up and down and then counting cells on a hematocytometer after performing Trypan blue (T 9906, Sigma, MO) exclusion assay staining to assess cell viability. In some experiments, for comparison, EC were cultured on inserts coated with Matrigel or collagen (1.5 mg/ml, i.e. 0.15%) according to standard protocols.
In a first experiment, we tested the ability of HAEC to attach and form a monolayer when seeded on various peptide scaffolds generated by self-assembly of the peptides following addition of PBS to a 0.5%(w/v) solution of the peptide in water. […] HAEC cultured in the presence of scaffolds generated from peptides incorporating the other biologically active peptide motifs either died or formed isolated clusters (FIGS. 9A-9G).
We therefore decided to blend the peptides incorporating biologically active motifs with the prototypic RAD16-I sequence in order to reduce the overall concentration of the biologically active motif presented to cells. We selected a volume/volume ratio of 9:1 (RAD16-I:modified peptide sequence comprising biologically active peptide motif, where peptides were dissolved at equal concentrations on a w/w basis) and generated peptide scaffolds from solutions in which the unmodified and modified peptides were present in this ratio.

[2] = Circular dichroism (secondary structure); format: physicochemical; details: 25 μM peptide in water, room temperature, 195-250 nm
Procedure: Circular dichroism (DC). CD spectra were gathered on an Aviv model 202 spectropolarimeter. Samples were prepared by diluting stock peptide solutions in water (0.5%) to a working concentration of 25 μM. Samples were analysed at room temperature in a quartz cuvette with a path length of 0.3 cm and in the wavelength range 195-250 nm.
Circular dichroism. CD spectra were obtained for each peptide sequence to assess its secondary structure. The secondary structure identifies ordered structures within a polypeptide such as α-helices and β-sheets. […] (Havel, 1996).

[3] = test system: human aortic endothelial cells (HAEC); assay: HAEC proliferation and competition assays with soluble peptide motifs; format: cell-based; details: 100% RAD16-I, no soluble peptide, improved cell isolation
Procedure: as §1
Competition assays with free soluble peptide sequences. HAEC were cultured as described on peptide scaffolds in cell culture inserts as described above. For each scaffold, the corresponding soluble motif sequence, or one of the other motifs not present in the scaffold, was added to the media of HAEC cultures at a final concentration of 400 μg/ml. Half of the media was changed every other day. […] The next day, cell numbers were evaluated as described above. […]

[4] = test system: human aortic endothelial cells (HAEC); assay: Western blot of laminin 1 and collagen IV production by HAEC; format: cell-based; details: compared to conventional 2D tissue culture plates
Source text: Western blots. Harvested HAEC for each culture condition were counted and lysed with sample buffer (NP0007, Invitrogen, CA) containing 2% (v/v) β-mercaptoethanol and a cocktail of protease inhibitors (1836153, Complete Mini, Roche, Penzberg, Germany) to avoid proteolysis. Cell lysates were run on a 10% PAGE system in MOPS buffer (NP0301, NP0001 Invitrogen, CA), and proteins were transferred to PVDF membranes (LC2002, Invitrogen, CA) to perform western blots. Briefly, membranes were blocked with 2% BSA and 0.1% Triton-X 100 in PBS. Two primary antibodies were used: mouse monoclonal IgG, anti human laminin γ1 [laminin B2 chain] (1 μg/ml, B1920, Chemicon, CA) and mouse monoclonal IgG, anti human collagen IV [7S domain] (2 μg/ml, MAB3326, Chemicon, CA). A secondary antibody, goat polyclonal anti-mouse IgG-HRP conjugated (1:5000 dilution, sc-2302, Santa Cruz Biotechnology, CA) was used for detection by chemiluminescence (sc-2048, Santa Cruz Biotechnology, CA). Protein bands were visualized by exposure to an X-ray film (Biomax Film, Kodak, N.Y.).

[5] = test system: neurons; details: neurons grown on surface; cited from earlier work
[6] = test system: human aortic endothelial cells (HAEC); assay: HAEC attachment assay on peptide scaffolds; format: cell-based; details: after one hour; modified peptides as 9:1 blends with RAD16-I
Procedure: as §1

CC(=O)N[C@@H](CCCNC(=N)N)C(=O)N[C@@H](C)C(=O)N[C@@H](CC(=O)O)C(=O)N[C@@H](C)C(=O)N[C@@H](CCCNC(=N)N)C(=O)N[C@@H](C)C(=O)N[C@@H](CC(=O)O)C(=O)N[C@@H](C)C(=O)N[C@@H](CCCNC(=N)N)C(=O)N[C@@H](C)C(=O)N[C@@H](CC(=O)O)C(=O)N[C@@H](C)C(=O)N[C@@H](CCCNC(=N)N)C(=O)N[C@@H](C)C(=O)N[C@@H](CC(=O)O)C(=O)N[C@@H](C)C(N)=O [RAD16-I, AcN-(RADA)4-CONH2]
HAEC monolayer formation, scaffold of 100% peptide ([1]; 0.5% (w/v) peptide, no blending): monolayer formation was observed
HAEC monolayer formation and cobblestone morphology on gel systems ([1]; after 3 days in culture): less than on blended scaffolds or on Matrigel or collagen-I
HAEC monolayer formation, peptide content 100% ([1]; scaffold of 100% peptide, 0.5% (w/v)): +¶
Secondary structure (CD) [2]: β-sheet
HAEC proliferation lower than on scaffolds made from peptide blends [3]: 2-2.5 fold
laminin 1 and collagen IV deposition by HAEC [4]: significant enhancement of laminin 1 and collagen IV deposition
neurite outgrowth and synapse formation on peptide structure [5]: able to serve as a substrate for neurite outgrowth and formation of functionally active synapses
HAEC attachment to the surface [6]: ~100%
